Earlier results in patent US20070014831A1, “Biodegradable occlusive device with moisture memory” (priority 2005, published 2007).

Legend:
[1] = J Biomater Sci Polymer Edn 1999;10:63-78
[2] = in vivo

glutaraldehyde concentration used to crosslink materials above which a persistent foreign-body reaction occurred [2] | Compound | cytotoxicity compared with glutaraldehyde [1] | concentration at which cytotoxic (tissue culture) | concentration at which cytotoxic in tissue culture (tissue culture; in tissue culture, as low as)
– | COC(=O)C1=CO[C@@H](O)[C@@H]2C(CO)=CC[C@H]12 [Genipin] | significantly less cytotoxic than glutaraldehyde | – | –
above 0.05% | O=CCCCC=O [glutaraldehyde] | – | 10-25 ppm | ≥ 3 ppm
